What was measured:
ABUTH [1] = assay: Pre-emergence herbicidal action against ABUTH; format: in vivo, Abutilon theophrasti
In short: (§1)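 Visual rating at 3 weeks vs untreated pots; 0–100% scale, 100% = plants died. Treatment: aqueous WP/EC spray onto covering soil, 600–800 l/ha, 0.2% wetter, seeds in sandy loam.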

AMARE [2] = assay: Pre-emergence herbicidal action against AMARE; format: in vivo, Amaranthus retroflexus
In short: as §1

ECHCG [3] = assay: Pre-emergence herbicidal action against ECHCG; format: in vivo, Echinochloa crus-galli; settings: 80 g/ha
In short: as §1

LOLRI = assay: Pre-emergence herbicidal action against LOLRI; format: in vivo, Lolium rigidum; settings: 80 g/ha
From the text: Seeds of monocotyledonous and dicotyledonous weed plants and crop plants are laid out in sandy loam soil in wood-fiber pots and covered with soil. The compounds of the invention, formulated in the form of wettable powders (WP) or as emulsion concentrates (EC), are then applied to the surface of the covering soil in the form of an aqueous suspension or emulsion at a water application rate equivalent to 600 to 800 l/ha, with addition of 0.2% wetting agent. After the treatment, the pots are placed in a greenhouse and kept under good growth conditions for the trial plants. The damage to the test plants is scored visually after a test period of 3 weeks by comparison with untreated controls (herbicidal activity in percent (%): 100% activity=the plants have died, 0% activity=like control plants). […] The tables below illustrate, in an illustrative manner, the post-emergence herbicidal action of the compounds of the invention, the herbicidal activity being stated in percent.

MATIN = assay: Pre-emergence herbicidal action against MATIN; format: in vivo, Matricaria inodora
In short: as §1

VERPE [4] = assay: Pre-emergence herbicidal action against VERPE; format: in vivo, Veronica persica; settings: dosage 80 g/ha
In short: as §1

ABUTH [5] = assay: Post-emergence herbicidal action against ABUTH; format: in vivo, Abutilon theophrasti; settings: dosage 20 g/ha, visual assessment about 3 weeks after treatment vs untreated controls
In short: (§2)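 Greenhouse pot plants in sandy loam were sprayed at the one-leaf stage, 2 to 3 weeks after sowing, with WP or EC formulations as aqueous suspension or emulsion (600 to 800 l/ha water, 0.2% wetting agent). About 3 weeks later, damage was scored visually against untreated controls as % action (100% = dead, 0% = like control).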

AMARE [6] = assay: Post-emergence herbicidal action against AMARE; format: in vivo, Amaranthus retroflexus; settings: 20 g/ha, visual assessment about 3 weeks after treatment, 100% = plants have died, 0% = like control plants
In short: as §2

ECHCG [7] = assay: Post-emergence herbicidal action against ECHCG; format: in vivo, Echinochloa crus-galli; settings: dosage 20 g/ha
In short: as §2

PHBPU = assay: Post-emergence herbicidal action against PHBPU; format: in vivo, Pharbitis purpurea
In short: as §2

ALOMY = assay: Pre-emergence herbicidal action against ALOMY; format: in vivo, Alopecurus myosuroides; settings: Alopecurus myosuroides, 504 h, pre-emergence
In short: as §1

AVEFA = assay: Pre-emergence herbicidal action against AVEFA; format: in vivo, Avena fatua; settings: Avena fatua, 504 h; 80 g/ha, pre-emergence
In short: as §1

SETVI = assay: Pre-emergence herbicidal action against SETVI; format: in vivo, Setaria viridis; settings: Setaria viridis, 504 h
In short: as §1

VIOTR [8] = assay: Pre-emergence herbicidal action against VIOTR; format: in vivo, Viola tricolor; settings: Viola tricolor, 504 h
In short: as §1

DIGSA [9] = assay: Pre-emergence herbicidal action against DIGSA; format: in vivo, Digitaria sanguinalis; settings: Digitaria sanguinalis, 504 h
In short: as §1

VERPE [10] = assay: Post-emergence herbicidal action against VERPE; format: in vivo, Veronica persica; settings: Veronica persica, 504 h, 20 g/ha
In short: as §2

VIOTR [11] = assay: Post-emergence herbicidal action against VIOTR; format: in vivo, Viola tricolor; settings: Viola tricolor, 504 h, 20 g/ha
In short: as §2

DIGSA [12] = assay: Post-emergence herbicidal action against DIGSA; format: in vivo, Digitaria sanguinalis; settings: Digitaria sanguinalis, 504 h
In short: as §2

[13] = 80 g/ha, scored visually after 3 weeks vs untreated controls (100% = plants have died, 0% = like control plants)

Cn1nnnc1NC(=O)c1ccc(C(F)F)c(C(=O)NCC2CCCO2)c1Cl (centres unmarked) [Example 1-159]
Pre-emergence action against ABUTH (herbicidal activity) (ABUTH [1]; [13]): 100% | Pre-emergence action against ABUTH (herbicidal activity in percent) (ABUTH [1]; dosage 20 g/ha, scored visually after 3 weeks vs untreated controls, 100% = plants have died, 0% = like control plants): 80% | Pre-emergence action against AMARE in % (AMARE [2]; 20 g/ha, scored visually after 3 weeks vs untreated controls, 100% = plants have died, 0% = like control plants): 100% | Pre-emergence action against AMARE in % (AMARE [2]; [13]): 100% | Pre-emergence action against ECHCG in % (ECHCG [3]): 90% | Pre-emergence action against LOLRI in % (LOLRI): 80% | Pre-emergence action against MATIN in % (MATIN; dosage 80 g/ha): 90% | Pre-emergence action against VERPE in % (VERPE [4]): 80% | Post-emergence action against ABUTH in % (ABUTH [5]): 80% | Post-emergence action at 20 g/ha against AMARE in % (AMARE [6]): 100% | Post-emergence action against ECHCG in % (ECHCG [7]): 90% | Post-emergence action against PHBPU in % (PHBPU; dosage 5 g/ha): 80% | Post-emergence action against PHBPU in % (PHBPU; dosage 20 g/ha): 80%

Cn1nnnc1NC(=O)c1ccc(I)c(C(=O)NC2CC2)c1Cl [Example 1-197]
pest or weed control at 80 g/ha (ABUTH [1]; Abutilon theophrasti, 504 h, 80 g/ha, scored visually after 3 weeks vs untreated controls (100% = plants have died, 0% = like control plants)): 100% | pest or weed control at 20 g/ha (ABUTH [1]; Abutilon theophrasti, 504 h, dosage 20 g/ha, scored visually after 3 weeks vs untreated controls, 100% = plants have died, 0% = like control plants, read-out: Pre-emergence action against ABUTH (herbicidal activity in percent)): 100% | pest or weed control at 80 g/ha (ALOMY; [13]): 100% | pest or weed control at 20 g/ha (ALOMY; 20 g/ha, scored visually after 3 weeks, 100% = plants have died, 0% = like control plants): 100% | pest or weed control at 20 g/ha (AMARE [2]; Amaranthus retroflexus, 504 h, 20 g/ha, scored visually after 3 weeks vs untreated controls, 100% = plants have died, 0% = like control plants): 100% | pest or weed control at 80 g/ha (AMARE [2]; Amaranthus retroflexus, 504 h, 80 g/ha, scored visually after 3 weeks vs untreated controls, 100% = plants have died, 0% = like control plants): 100% | pest or weed control at 80 g/ha (AVEFA): 100% | pest or weed control at 80 g/ha (ECHCG [3]; Echinochloa crus-galli, 504 h): 90% | pest or weed control at 80 g/ha (LOLRI; Lolium rigidum, 504 h): 80% | pest or weed control at 20 g/ha (MATIN; Tripleurospermum inodorum, 504 h, dosage 20 g/ha): 90% | pest or weed control at 80 g/ha (MATIN; Tripleurospermum inodorum, 504 h, dosage 80 g/ha): 100% | pest or weed control at 20 g/ha (SETVI; dosage 20 g/ha): 100% | pest or weed control at 80 g/ha (SETVI; dosage 80 g/ha): 100% | pest or weed control at 20 g/ha (VIOTR [8]; dosage 20 g/ha): 100% | pest or weed control at 80 g/ha (VIOTR [8]; dosage 80 g/ha): 100% | pest or weed control at 20 g/ha (DIGSA [9]; dosage 20 g/ha): 100% | pest or weed control at 80 g/ha (DIGSA [9]; dosage 80 g/ha): 100% | pest or weed control at 20 g/ha (ABUTH [5]; Abutilon theophrasti, 504 h): 100% | pest or weed control at 20 g/ha (AMARE [6]; Amaranthus retroflexus, 504 h): 100% | pest or weed control at 20 g/ha (ECHCG [7]; Echinochloa crus-galli, 504 h): 90% | pest or weed control at 20 g/ha (PHBPU; Ipomoea purpurea, 504 h, dosage 20 g/ha): 90% | pest or weed control at 20 g/ha (VERPE [10]): 80% | pest or weed control at 20 g/ha (VIOTR [11]): 100% | pest or weed control at 5 g/ha (DIGSA [12]; 5 g/ha): 100% | pest or weed control at 20 g/ha (DIGSA [12]; 20 g/ha): 100%

Source: patent US12655116B2, “Substituted isophthalic acid diamides” (Bayer Aktiengesellschaft, priority 2020, dated 2026)
